Source: patent US20180255776A1, “HERBICIDAL COMPOSITIONS CONTAINING 4-AMINO-3-CHLORO-6-(4-CHLORO-2-FLUORO-3-METHOXYPHENYL) PYRIDINE-2-CARBOXYLIC ACID OR A DERIVATIVE THEREOF, A TRIAZOLOPYRIMIDINE SULFONAMIDE HERBICIDE OR A DERIVATIVE THEREOF, AND GLYPHOSATE OR A DERIVATIVE THEREOF” (DOW AGROSCIENCES LLC, priority 2015, published 2018)
Counter-ions that a name gives are not always drawn.

What was measured:
Assay in all cases: Post-emergence field trial, visual % weed control
Assay type in all cases: in vivo
[1] = tested on: Ipomoea grandifolia (Corda-de-viola, IAQGR); conditions: Glyphosate DMA salt 960 g ai/ha
Protocol: (§1) Treatments consisted of the methyl ester of 4-amino-3-chloro-6-(4-chloro-2-fluoro-3-methoxyphenyl)pyridine-2-carboxylic acid (Cmpd 1) and diclosulam in combination as GF-3220. […] Glyphosate dimethylammonium salt was applied as various commercial formulations containing 480 grams acid equivalent per liter (g ae/L).
(§2) Field trials were conducted under standard field conditions. Plot sizes varied from 3-4 meters (m) wide by 5-10 m long. Treatments were applied with small plot backpack sprayers, using pressurized carbon dioxide (CO2) as propellant. Pressure varied from 30-50 pounds per square inch (PSI), with spray tips typically of a Flat Fan type applying water diluent at 100-150 liters per hectare (L/ha). Boom sizes varied from 3-4 m in width. Weed sizes varied, but all treatments were applied as post-emergence treatments to weeds from 2 leaf to 2 tiller growth stages varying from 2-15 inches in height. No additional adjuvant was mixed with the treatments applied in the field.
(§3) The weed spectrum included, but was not limited to, Commelina benghalensis (hairy wandering Jew, COMBE), Echinochloa crus-galli (barnyardgrass, ECHCG), Euphorbia heterophylla (wild poinsettia, EPHHL), Conyza bonariensis (hairy fleabane, ERIBO), Conyza canadensis (horseweed, ERICA), Conyza sumatrensis (Guernsey fleabane, ERISU) and Ipomoea grandifolia (Corda-de-viola, IAQGR).
(§4) The values reported are percent (%) control visually rated. The predicted percent (%) weed control was determined using Colby's equation.

[2] = tested on: Conyza bonariensis (hairy fleabane, ERIBO); conditions: Glyphosate DMA salt 960 g ai/ha
Protocol: as §1, §2, §3, §4

[3] = tested on: Conyza canadensis (horseweed, ERICA); conditions: Glyphosate DMA salt 1200 g ai/ha
Protocol: as §1, §2, §3, §4

[4] = tested on: Euphorbia heterophylla (wild poinsettia, EPHHL); conditions: 35DAA, Glyphosate DMA salt 960 g ai/ha
Protocol: as §1, §2, §3, §4

[5] = tested on: Conyza sumatrensis (Guernsey fleabane, ERISU); conditions: Glyphosate DMA salt 1200 g ai/ha
Protocol: as §1, §2, §3, §4

[6] = tested on: Commelina benghalensis (hairy wandering Jew, COMBE); conditions: 35DAA, Glyphosate DMA salt 960 g ai/ha
Protocol: as §1, §2, §3, §4

Structure (SMILES): O=C(O)CNCP(=O)(O)O [Glyphosate DMA salt, Glyphosate dimethylammonium salt]
- Mean % weed control ([1]; 14DAA): 40.0%
- Mean % weed control ([1]; 28DAA): 45.0%
- Mean % weed control ([2]; 9DAA): 10.0%
- Mean % weed control ([2]; 14DAA): 40.0%
- Mean % weed control ([2]; 35DAA): 25.0%
- Mean % weed control ([2]; 67DAA): 20.0%
- Mean % weed control ([3]; 46DAA): 25.0%
- Mean % weed control ([3]; 62DAA): 20.0%
- Mean % weed control [4]: 7.5%
- Mean % weed control ([5]; 19DAA): 19.0%
- Mean % weed control ([5]; 29DAA): 17.0%
- Mean % weed control [6]: 62.0%
